Laboratory results: patent US9187464B2, “TRPV4 antagonists” (GlaxoSmithKline Intellectual Property (No. 2) Limited, priority 2011, dated 2015)

Target: T1, human TRPV4 (Homo sapiens, UniProt Q9HBA0)
T1 construct: expressed in transfected cells; host or cells: HEK-293-MSR-II cells transduced with 1% BacMam virus
Assay: Ligand-gated assay (Fluo4 calcium, FLIPR; inhibition of agonist-induced activation)
Format: cell-based
Details: HEK-293-MSR-II cells transduced with BacMam human TRPV4; agonist at EC80
Summary of the method: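 HEK-293-MSR-II cells BacMam-transduced with human TRPV4, loaded with 2 uM Fluo-4. Compound preincubated 10 min at room temperature in HBSS pH 7.4 plus 0.01% Chaps, then agonist added at its EC80. Inhibition of agonist-evoked calcium rise read on FLIPR; IC50 reported.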

T1 sequence (Q9HBA0 whole entry): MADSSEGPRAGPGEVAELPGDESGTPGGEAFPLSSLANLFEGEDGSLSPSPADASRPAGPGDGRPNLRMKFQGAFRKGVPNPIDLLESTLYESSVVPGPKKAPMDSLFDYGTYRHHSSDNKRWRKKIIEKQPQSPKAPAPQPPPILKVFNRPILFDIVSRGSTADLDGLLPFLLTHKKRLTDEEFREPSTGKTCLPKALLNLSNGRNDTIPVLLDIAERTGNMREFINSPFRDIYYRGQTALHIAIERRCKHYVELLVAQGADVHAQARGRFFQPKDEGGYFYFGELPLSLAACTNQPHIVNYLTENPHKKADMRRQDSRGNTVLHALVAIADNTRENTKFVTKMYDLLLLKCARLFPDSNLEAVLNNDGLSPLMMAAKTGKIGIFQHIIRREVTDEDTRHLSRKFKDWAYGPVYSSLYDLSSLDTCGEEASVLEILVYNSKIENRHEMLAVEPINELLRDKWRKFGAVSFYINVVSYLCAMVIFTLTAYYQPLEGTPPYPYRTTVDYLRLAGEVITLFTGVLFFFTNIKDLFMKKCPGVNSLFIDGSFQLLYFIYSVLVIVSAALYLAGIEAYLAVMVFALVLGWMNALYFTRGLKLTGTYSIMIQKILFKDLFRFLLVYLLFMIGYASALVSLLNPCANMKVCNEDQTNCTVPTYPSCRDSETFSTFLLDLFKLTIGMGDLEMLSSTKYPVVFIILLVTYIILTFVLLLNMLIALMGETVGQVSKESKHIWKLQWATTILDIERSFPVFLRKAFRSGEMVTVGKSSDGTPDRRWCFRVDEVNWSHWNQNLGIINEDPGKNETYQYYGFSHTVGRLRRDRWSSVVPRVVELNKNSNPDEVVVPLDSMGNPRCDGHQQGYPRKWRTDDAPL

SMILES | IC50
N#Cc1ccc2ncn(C[C@H]3CCC[C@]4(C3)CN(Cc3cc(-c5ccc(Cl)cc5)no3)C(=O)O4)c2c1 [Example 67, 1-[((5S,7S)-3-{[3-(4-chlorophenyl)-5-isoxazolyl]methyl}-2-oxo-1-oxa-3-azaspiro[4.5]dec-7-yl)methyl]-1H-benzimidazole-6-carbonitrile] | 10 to 50 nM
Cc1noc(C(C)(C)CN2C[C@@]3(CCC[C@H](Cn4cnc5ccc(C#N)cc54)C3)OC2=O)n1 [Example 74, 1-({(5S,7S)-3-[2-methyl-2-(3-methyl-1,2,4-oxadiazol-5-yl)propyl]-2-oxo-1-oxa-3-azaspiro[4.5]dec-7-yl}methyl)-1H-benzimidazole-6-carbonitrile] | 10 to 50 nM
C[C@]1(Cn2cnc3ccc(C#N)cc32)CCC[C@@]2(CN(c3ccc(C(F)(F)F)cn3)C(=O)O2)C1 [Example 11, 1-({(5S,7S)-7-Methyl-2-oxo-3-[5-(trifluoromethyl)-2-pyridinyl]-1-oxa-3-azaspiro[4.5]dec-7-yl}methyl)-1H-benzimidazole-6-carbonitrile] | 10 to 50 nM
N#Cc1cccc(-n2cc(CN3C[C@@]4(CCC[C@H](Cn5cnc6ccc(C#N)cc65)C4)OC3=O)nn2)c1 [Example 92, 1-[((5S,7S)-3-{[1-(3-cyanophenyl)-1H-1,2,3-triazol-4-yl]methyl}-2-oxo-1-oxa-3-azaspiro[4.5]dec-7-yl)methyl]-1H-benzimidazole-6-carbonitrile] | 10 to 50 nM
N#Cc1ccc2ncn(C[C@H]3CCC[C@]4(C3)CN(Cc3cn(-c5ccccc5)nn3)C(=O)O4)c2c1 [Example 87, 1-({(5S,7S)-2-oxo-3-[(1-phenyl-1H-1,2,3-triazol-4-yl)methyl]-1-oxa-3-azaspiro[4.5]dec-7-yl}methyl]-1H-benzimidazole-6-carbonitrile] | 10 to 50 nM
COc1cc(C)c(N2C[C@@]3(CCC[C@H](Cn4cnc5ccc(C#N)cc54)C3)OC2=O)cn1 [Example 111, 1-({(5S,7S)-3-[4-methyl-6-(methyloxy)-3-pyridinyl]-2-oxo-1-oxa-3-azaspiro[4.5]dec-7-yl}methyl)-1H-benzimidazole-6-carbonitrile] | 10 to 50 nM
Cn1ccc(-c2cc(N3C[C@@]4(CCC[C@](C)(Cn5cnc6ccc(C#N)cc65)C4)OC3=O)on2)n1 [Example 51, 1-(((5S,7S)-7-methyl-3-(3-(1-methyl-1H-pyrazol-3-yl)isoxazol-5-yl)-2-oxo-1-oxa-3-azaspiro[4.5]decan-7-yl)methyl)-1H-benzo[d]imidazole-6-carbonitrile] | 10 to 50 nM
Cc1cnc(N2C[C@@]3(CCC[C@](C)(Cn4cnc5ccc(C#N)cc54)C3)OC2=O)cn1 [Example 117, 1-(((5S,7S)-7-methyl-3-(5-methylpyrazin-2-yl)-2-oxo-1-oxa-3-azaspiro[4.5]decan-7-yl)methyl)-1H-benzo[d]imidazole-6-carbonitrile] | 50 to 500 nM
N#Cc1ccc2ncn(C[C@H]3CCC[C@]4(C3)CN(Cc3cn(-c5ccnc(C(F)(F)F)c5)nn3)C(=O)O4)c2c1 [Example 100, 1-{[(5S,7S)-2-oxo-3-({1-[2-(trifluoromethyl)-4-pyridinyl]-1H-1,2,3-triazol-4-yl}methyl)-1-oxa-3-azaspiro[4.5]dec-7-yl]methyl}-1H-benzimidazole-6-carbonitrile] | 0.1 to 10 nM
N#Cc1ccc(-n2cc(CN3C[C@@]4(CCC[C@H](Cn5cnc6ccc(C#N)cc65)C4)OC3=O)nn2)cc1 [Example 88, 1-[((5S,7S)-3-{[1-(4-cyanophenyl)-1H-1,2,3-triazol-4-yl]methyl}-2-oxo-1-oxa-3-azaspiro[4.5]dec-7-yl)methyl]-1H-benzimidazole-6-carbonitrile] | 50 to 500 nM
CC1(CN2C[C@@]3(CCC[C@H](Cn4cnc5ccc(C#N)cc54)C3)OC2=O)CCN(c2ncccn2)C1 (stereo partly drawn) [Example 7, 1-[((5S,7S)-3-{[3-Methyl-1-(2-pyrimidinyl)-3-pyrrolidinyl]methyl}-2-oxo-1-oxa-3-azaspiro[4.5]dec-7-yl)methyl]-1H-benzimidazole-6-carbonitrile] | 50 to 500 nM
C[C@]1(Cn2cnc3ccc(C#N)cc32)CCC[C@@]2(CN(c3ncccc3C(F)(F)F)C(=O)O2)C1 [Example 26, 1-(((5S,7S)-7-Methyl-2-oxo-3-(3-(trifluoromethyl)pyridin-2-yl)-1-oxa-3-azaspiro[4.5]decan-7-yl)methyl)-1H-benzo[d]imidazole-6-carbonitrile] | 50 to 500 nM
N#Cc1ccc2ncn(C[C@H]3CCC[C@]4(C3)CN(Cc3nc(-c5ccccc5)cs3)C(=O)O4)c2c1 [Example 66, 1-({(5S,7S)-2-oxo-3-[(4-phenyl-1,3-thiazol-2-yl)methyl]-1-oxa-3-azaspiro[4.5]dec-7-yl}methyl)-1H-benzimidazole-6-carbonitrile] | 10 to 50 nM
CCc1cccnc1N1C[C@@]2(CCC[C@](C)(Cn3cnc4ccc(C#N)cc43)C2)OC1=O [Example 129, 1-(((5S,7S)-3-(3-ethylpyridin-2-yl)-7-methyl-2-oxo-1-oxa-3-azaspiro[4.5]decan-7-yl)methyl)-1H-benzo[d]imidazole-6-carbonitrile] | 10 to 50 nM
CC(C)c1cc(N2C[C@@]3(CCC[C@](C)(Cn4cnc5ccc(C#N)cc54)C3)OC2=O)on1 [Example 30, 1-({(5S,7S)-7-methyl-3-[3-(1-methylethyl)-5-isoxazolyl]-2-oxo-1-oxa-3-azaspiro[4.5]dec-7-yl}methyl)-1H-benzimidazole-6-carbonitrile] | 10 to 50 nM
Cc1cc(-c2ccc(F)cn2)ncc1N1C[C@@]2(CCC[C@](C)(Cn3cnc4ccc(C#N)cc43)C2)OC1=O [Example 165, 1-(((5S,7S)-3-(5′-fluoro-4-methyl-[2,2′-bipyridin]-5-yl)-7-methyl-2-oxo-1-oxa-3-azaspiro[4.5]decan-7-yl)methyl)-1H-benzo[d]imidazole-6-carbonitrile] | 0.1 to 10 nM
N#Cc1ccc2ncn(C[C@H]3CCC[C@]4(C3)CN(Cc3cn(-c5ccc(Cl)cc5)nn3)C(=O)O4)c2c1 [Example 89] | 10 to 50 nM
COc1ncccc1N1C[C@@]2(CCC[C@](C)(Cn3cnc4ccc(C#N)cc43)C2)OC1=O [Example 109, 1-[{(5S,7S)-7-methyl-3-[2-(methyloxy)-3-pyridinyl]-2-oxo-1-oxa-3-azaspiro[4.5]dec-7-yl}methyl]-1H-benzimidazole-6-carbonitrile] | 50 to 500 nM

Next, values leading:

IC50 | SMILES
0.1 to 10 nM | COCc1noc(C(C)(C)CN2C[C@@]3(CCC[C@H](Cn4cnc5ccc(C#N)cc54)C3)OC2=O)n1 [Example 81, 1-{[(5S,7S)-3-(2-methyl-2-{3-[(methyloxy)methyl]-1,2,4-oxadiazol-5-yl}propyl)-2-oxo-1-oxa-3-azaspiro[4.5]dec-7-yl]methyl}-1H-benzimidazole-6-carbonitrile]
0.1 to 10 nM | CC(C)(C)c1noc(N2C[C@@]3(CCC[C@](C)(Cn4cnc5ccc(C#N)cc54)C3)OC2=O)c1Cl [Example 10, 1-({(5S,7S)-3-[4-Chloro-3-(1,1-dimethylethyl)-5-isoxazolyl]-7-methyl-2-oxo-1-oxa-3-azaspiro[4.5]dec-7-yl}methyl)-1H-benzimidazole-6-carbonitrile]
0.1 to 10 nM | CCOC(C)c1noc(C(C)(C)CN2C[C@@]3(CCC[C@H](Cn4cnc5ccc(C#N)cc54)C3)OC2=O)n1 (stereo partly drawn) [Example 28, 1-{[(5S,7S)-3-(2-{3-[1-(Ethyloxy)ethyl]-1,2,4-oxadiazol-5-yl}-2-methylpropyl)-2-oxo-1-oxa-3-azaspiro[4.5]dec-7-yl]methyl}-1H-benzimidazole-6-carbonitrile]
0.1 to 10 nM | CC(C)(CN1C[C@@]2(CCC[C@H](Cn3cnc4ccc(C#N)cc43)C2)OC1=O)c1nnc(-c2ccccc2)o1 [Example 5, 1-({(5S,7S)-3-[2-Methyl-2-(5-phenyl-1,3,4-oxadiazol-2-yl)propyl]-2-oxo-1-oxa-3-azaspiro[4.5]dec-7-yl}methyl)-1H-benzimidazole-6-carbonitrile]
0.1 to 10 nM | COc1cc(C)c(N2C[C@@]3(CCC[C@](C)(Cn4cnc5ccc(C#N)cc54)C3)OC2=O)cn1 [Example 15, 1-(((5S,7S)-3-(6-Methoxy-4-methylpyridin-3-yl)-7-methyl-2-oxo-1-oxa-3-azasbiro[4.5]decan-7-yl)methyl)-1H-benzo[d]imidazole-6-carbonitrile]
0.1 to 10 nM | N#Cc1ccc2ncn(C[C@H]3CCC[C@]4(C3)CN(Cc3cn(-c5cccc(C(F)(F)F)c5)nn3)C(=O)O4)c2c1 [Example 93, 1-{[(5S,7S)-2-oxo-3-({1-[3-(trifluoromethyl)phenyl]-1H-1,2,3-triazol-4-yl}methyl)-1-oxa-3-azaspiro[4.5]dec-7-yl]methyl}-1H-benzimidazole-6-carbonitrile]
0.1 to 10 nM | COc1cc(OC)c(N2C[C@@]3(CCC[C@](C)(Cn4cnc5ccc(C#N)cc54)C3)OC2=O)cn1 [Example 22, 1-(((5S,7S)-3-(4,6-Dimethoxyipyridin-3-yl)-7-methyl-2-oxo-1-oxa-3-azasbiro[4.5]decan-7-yl)methyl)-1H-benzo[d]imidazole-6-carbonitrile]
0.1 to 10 nM | CN(C)c1ccc(N2C[C@@]3(CCC[C@](C)(Cn4cnc5ccc(C#N)cc54)C3)OC2=O)cn1 [Example 19, 1-(((5S,7S)-3-(6-(Dimethylamino)pyridin-3-yl)-7-methyl-2-oxo-1-oxa-3-azaspiro[4.5]decan-7-yl)methyl)-1H-benzo[d]imidazole-6-carbonitrile]
0.1 to 10 nM | CC(C)(C)c1ncc(N2C[C@@]3(CCC[C@](C)(Cn4cnc5ccc(C#N)cc54)C3)OC2=O)cn1 [Example 134, 1-(((5S,7S)-3-(2-(tert-butyl)pyrimidin-5-yl)-7-methyl-2-oxo-1-oxa-3-azaspiro[4.5]decan-7-yl)methyl)-1H-benzo[d]imidazole-6-carbonitrile]
0.1 to 10 nM | COc1cc(Cl)ncc1N1C[C@@]2(CCC[C@](C)(Cn3cnc4ccc(C#N)cc43)C2)OC1=O [Example 122, 1-(((5S,7S)-3-(6-chloro-4-methoxypyridin-3-yl)-7-methyl-2-oxo-1-oxa-3-azaspiro[4.5]decan-7-yl)methyl)-1H-benzo[d]imidazole-6-carbonitrile]
